Experimental data: US20100297692A1, “REACTION MEDIUM FOR DETECTING AND/OR IDENTTIFYING STAPHYLOCCOUS AUREUS” (BIOMERIEUX, priority 2007, published 2010)

What was measured:
S. aureus (MRSA) = test: β-D-ribosidase substrates in Columbia agar, colored or fluorescent colonies; assay type: cell-based, Staphylococcus aureus; conditions: 400 mg/L + ammoniacal iron citrate 100 mg/l
Experimental: (§1) The media hereinafter were prepared in 200 ml of a Columbia agar base (Oxoid), in combination with the chromogenic β-D-ribosidase substrates. The various substrates and also the concentrations and the additives used in the media are described in Table 1 below:
(§2) The β-D-ribosidase substrates are solubilized in DMSO and added to the media so as to obtain the concentrations indicated in Table 1.
(§3) 191 bacterial strains were inoculated onto each of the media using a suspension at 0.5 MacFarland diluted to 1/1000. The dishes were incubated at 37° C. and then read.
(§4) The media were distributed into Petri dishes, then inoculated with approximately 100 000 CFU, then incubated at 37° C. for 48 h. The colonies formed were examined visually after incubation times of 18, 24 and 48 hours.
(§5) The stock collection of 191 strains comprised: […], 48 Staphylococcus spp, 61 Enterococcus spp and 3 alpha-hemolytic Streptococcus.

S. aureus (MSSA) = test: as above; assay type: cell-based, Staphylococcus aureus; conditions: 400 mg/L + ammoniacal iron citrate 100 mg/l
Experimental: as §1, §2, §3, §4, §5

[1] = system: Coagulase-negative Staphylococci; test: as above; assay type: cell-based, Staphylococcus spp; conditions: Coagulase-negative Staphylococci, 400 mg/L + ammoniacal iron citrate 100 mg/l
Experimental: as §1, §2, §3, §4, §5

Micrococcus luteus = test: as above; assay type: cell-based; conditions: 400 mg/L + ammoniacal iron citrate 100 mg/l
Experimental: [The procedure below names another organism; the source lists this organism under the same test.] as §1, §2, §3, §4, §5

Enterococci = test: as above; assay type: cell-based, Enterococcus spp; conditions: 400 mg/L + ammoniacal iron citrate 100 mg/l
Experimental: as §1, §2, §3, §4, §5

[2] = system: Alpha-hemolytic streptococci; test: as above; assay type: cell-based, alpha-hemolytic Streptococcus; conditions: 400 mg/L + ammoniacal iron citrate 100 mg/l
Experimental: as §1, §2, §3, §4, §5

[3] = system: S. aureus (MRSA and MSSA); test: Catechol-β-D-riboside in a liquid medium, coloration; assay type: cell-based, Staphylococcus aureus
Experimental: (§6) The medium hereinafter had the same composition as a chromID S. aureus base (bioMérieux), with no selective agents nor agar, so as to obtain a liquid medium. The substrates and inducers were replaced, before autoclaving, with […] of catechol-β-D-riboside, solubilized in DMSO, and with ammoniacal iron citrate at 500 mg/l. The medium was then distributed into tubes in a proportion of 1.5 ml/tube.
For this medium, the inoculation was carried out using precultures prepared for 24 h at 37° C. A suspension of physiological saline at 0.5 McF was prepared and then each tube was inoculated with 10 μl of bacterial suspension. […]
(§7) In total, 11 staphylococcus strains were tested; 5 S. aureus and 6 of other species of the Staphylococcus genus (coagulase-negative).

Coagulase-negative = test: as above; assay type: cell-based
Experimental: as §6
For this medium, the inoculation was carried out using precultures prepared for 24 h at 37° C. A suspension of physiological saline at 0.5 McF was prepared and then each tube was inoculated with 10 μl of bacterial suspension.
(§8) The readings were carried out after 24 and 48 hours of incubation at 37° C.
as §7

S aureus (MRSA and MSSA) = test: Catechol-β-D-riboside and X-β-D-riboside on a broad panel of Staphylococcus spp; assay type: cell-based; conditions: GTS medium, 300 mg/l substrate, 500 mg/l ammoniacal iron citrate
Experimental: (§9) Catechol-β-D-riboside: A GTS medium (bioMérieux) supplemented with 300 mg/l of catechol-β-D-riboside, then autoclaved, and with 500 mg/l of ammoniacal iron citrate was used and distributed into Petri dishes 55 mm in diameter.
(§10) X-β-D-riboside: A modified Chapman medium, without NaCl, autoclaved and supplemented with 60 mg/l of X-β-D-riboside, was used and distributed into Petri dishes 55 mm in diameter.
For the two media, the inoculation was carried out using precultures prepared for 24 h at 37° C. A suspension in physiological saline at 0.5 McF was prepared and then each strain was inoculated onto a dish using a 10 μl calibrated loop. […]
(§11) In total, […] were tested: 34 S. aureus, including 25 MRSAs, and 46 other species of Staphylococcus (including S. schleiferi; S. capitis; S. hyicus; S. intermedius; S. haemolyticus; S. auricularis; S. hominis; S. warneri; S. chromogenes; S. cohnii; S. epidermidis; S. sciuri; S. xylosus; S. saprophyticus).

Coag neg = test: as above; assay type: cell-based; conditions: GTS medium, 300 mg/l substrate, 500 mg/l ammoniacal iron citrate
Experimental: as §9, §10
For the two media, the inoculation was carried out using precultures prepared for 24 h at 37° C. A suspension in physiological saline at 0.5 McF was prepared and then each strain was inoculated onto a dish using a 10 μl calibrated loop.
as §8, §11

OC[C@H]1O[C@@H](Oc2ccccc2O)[C@H](O)[C@@H]1O [Catechol-β-riboside, 2-Hydroxyphenyl-beta-D-riboside]
% of strains producing colored or fluorescent colonies (S. aureus (MRSA); 18 h): 100% | % of strains producing colored or fluorescent colonies (S. aureus (MRSA); 24 h): 100% | % of strains producing colored or fluorescent colonies (S. aureus (MRSA); 48 h): 100% | % of strains producing colored or fluorescent colonies (S. aureus (MSSA); 18 h): 100% | % of strains producing colored or fluorescent colonies (S. aureus (MSSA); 24 h): 100% | % of strains producing colored or fluorescent colonies (S. aureus (MSSA); 48 h): 100% | % of strains producing colored or fluorescent colonies ([1]; 18 h): 3% | % of strains producing colored or fluorescent colonies ([1]; 24 h): 3% | % of strains producing colored or fluorescent colonies ([1]; 48 h): 3% | % of strains producing colored or fluorescent colonies (Micrococcus luteus; 18 h): 0% | % of strains producing colored or fluorescent colonies (Micrococcus luteus; 24 h): 0% | % of strains producing colored or fluorescent colonies (Micrococcus luteus; 48 h): 0% | % of strains producing colored or fluorescent colonies (Enterococci; 18 h): 2% | % of strains producing colored or fluorescent colonies (Enterococci; 24 h): 2% | % of strains producing colored or fluorescent colonies (Enterococci; 48 h): 2% | % of strains producing colored or fluorescent colonies ([2]; 18 h): 0% | % of strains producing colored or fluorescent colonies ([2]; 24 h): 0% | % of strains producing colored or fluorescent colonies ([2]; 48 h): 0% | Number of strains producing a coloration, Positive at 18 h ([3]; 300 ml/g catechol-β-D-riboside, ammoniacal iron citrate 500 mg/l, S. aureus, 18 h): 5/5 | Number of strains producing a coloration, Positive at 24 h ([3]; 300 ml/g catechol-β-D-riboside, ammoniacal iron citrate 500 mg/l, S. aureus, 24 h): 5/5 | Number of strains producing a coloration, Positive at 48 h ([3]; 300 ml/g catechol-β-D-riboside, ammoniacal iron citrate 500 mg/l, S. aureus, 48 h): 5/5 | coloration for S. aureus ([3]; from 18 hours onward): 100% | Number of strains producing a coloration, Positive at 18 h (Coagulase-negative; 300 ml/g catechol-β-D-riboside, ammoniacal iron citrate 500 mg/l, coagulase-negative, 18 h): 0/6 | Number of strains producing a coloration, Positive at 24 h (Coagulase-negative; 300 ml/g catechol-β-D-riboside, ammoniacal iron citrate 500 mg/l, coagulase-negative, 24 h): 0/6 | Number of strains producing a coloration, Positive at 48 h (Coagulase-negative; 300 ml/g catechol-β-D-riboside, ammoniacal iron citrate 500 mg/l, coagulase-negative, 48 h): 1/6 | detection of the other species of the Staphylococcus genus (Coagulase-negative; from 18 hours onward): none of the other species of the Staphylococcus genus were detected | Number of strains producing a coloration/total number of strains, positive at 18 h (S aureus (MRSA and MSSA); 18 h): 19/34 | Number of strains producing a coloration/total number of strains, positive at 24 h (S aureus (MRSA and MSSA); 24 h): 31/34 | Number of strains producing a coloration/total number of strains, positive at 48 h (S aureus (MRSA and MSSA); 48 h): 34/34 | Number of strains producing a coloration/total number of strains, positive at 18 h (Coag neg; 18 h): 10/46 | Number of strains producing a coloration/total number of strains, positive at 24 h (Coag neg; 24 h): 14/46 | Number of strains producing a coloration/total number of strains, positive at 48 h (Coag neg; 48 h): 14/46
